The values that follow are results of earlier work, collected in patent US20190192552A1, “PHARMACEUTICAL COMPOSITIONS AND METHODS FOR TREATING KELOIDS, HY[…] AND WOUNDS, AND FOR PROVIDING IMPROVED SKIN CARE” (Cormedix Inc., priority 2017, published 2019).

This data set has as its system Microbes. The following applies: microbes killed and resulting toxins inactivated.

Take `O=S1(=O)CCN(CN2CCS(=O)(=O)NC2)CN1` [taurolidine, 4,4′-methylene-bis(tetrahydro-1,2,4-thiadiazine)-1,1,1′,1′,-tetraoxide]: the “destruction time in vitro” value is given as “approximately 30 minutes”.
